Measurements from patent publication US4039736A (Bristol-Myers Company, priority 1976, dated 1977).
≈ marks a conversion by molar mass, not a printed value.

Columns and labels:
[1] = tested on: animal tumor systems; settings: reported in literature; cited from earlier work
[2] = tested on: Streptococcus pneumoniae A-9585; assay: MIC, standard tube dilution procedure; assay type: cell-based; settings: A9585; in vitro, Streptococcus pneumoniae A-9585; read-out: MIC
[3] = tested on: Streptococcus pyogenes A-9604; assay: MIC, standard tube dilution procedure; assay type: cell-based; settings: A9604; in vitro, Streptococcus pyogenes A-9604; read-out: MIC
[4] = tested on: Staphylococcus aureus A-9497; assay: MIC, standard tube dilution procedure; assay type: cell-based; settings: A9497; in vitro, Staphylococcus aureus A-9497; read-out: MIC
[5] = tested on: Staphylococcus aureus A-9537; assay: MIC, standard tube dilution procedure; assay type: cell-based; settings: A9537; in vitro, Staphylococcus aureus A-9537; read-out: MIC
[6] = tested on: Escherichia coli A-15119; assay: MIC, standard tube dilution procedure; assay type: cell-based; settings: A15119; in vitro, Escherichia coli A-15119; read-out: MIC
[7] = tested on: Escherichia coli A-21780; assay: MIC, standard tube dilution procedure; assay type: cell-based; settings: A21780; in vitro, Escherichia coli A-21780; read-out: MIC
[8] = tested on: Klebsiella pneumoniae A-9977; assay: MIC, standard tube dilution procedure; assay type: cell-based; settings: A9977; in vitro, Klebsiella pneumoniae A-9977; read-out: MIC
[9] = tested on: Proteus mirabilis A-9900; assay: MIC, standard tube dilution procedure; assay type: cell-based; settings: A9900; in vitro, Proteus mirabilis A-9900; read-out: MIC
[10] = tested on: Candida albicans A-9540; assay: MIC, standard tube dilution procedure; assay type: cell-based; settings: A9540; in vitro, Candida albicans A-9540; read-out: MIC
[11] = tested on: Candida tropicalis A-15051; assay: MIC, standard tube dilution procedure; assay type: cell-based; settings: A15051; in vitro, Candida tropicalis A-15051; read-out: MIC
[12] = tested on: Candida krusei A-15052; assay: MIC, standard tube dilution procedure; assay type: cell-based; settings: Pichia kudriavzevii, A15052; in vitro, Candida krusei A-15052; read-out: MIC
[13] = tested on: Cryptococcus neoformans A-1503; assay: MIC, standard tube dilution procedure; assay type: cell-based; settings: A1503; in vitro, Cryptococcus neoformans A-1503; read-out: MIC
[14] = tested on: Trichophyton mentagrophytes A-9870; assay: MIC, standard tube dilution procedure; assay type: cell-based; settings: A9870; in vitro, Trichophyton mentagrophytes A-9870; read-out: MIC
[15] = acute intraperitoneal LD50 in mice; settings: mouse, in vivo, ip
[16] = Solubility; assay type: physicochemical
[17] = activity of column fractions of bohemic acid complex; settings: Example 8 large scale fractionation
Description: Sephadex LH-20 soaked for 68 hours in chloroform was slurry packed into a Pharmacia SR 25/100 column (25 mm. I.D. × 100 cm. height) equipped with adjustable teflon tips at each end. The column was packed so as to be completely filled from tip to tip, an effective bed height of 90-95 cm. Bohemic acid complex (500 mg.) was dissolved in 10 ml. chloroform and applied to the column which was then allowed to develop with chloroform by downflow at a take-off rate of 1 ml./min. Eluted liquid was collected in 6 ml. cuts in a fraction collector. Samplings of even numbered tubes were diluted 80-fold with chloroform and read in a Bausch and Lomb Spectronic 20 colorimeter at 490 mμ. Four distinct bands of anthracycline pigments were noted as follows:
The solids obtained were chromatographed on Brinkmann 60F254 silica gel thin layer plates using an 80:20 toluene:methanol solvent system. […] The second band gave a characteristic pinkish red zone at about Rf =0.75. […] The third fraction to elute gave a single zone with Rf ~0.3. […] The final band to elute gave a zone at Rf ~0.3 and comprised mainly marcellomycin. […]
A 6 inch (diameter) × 77 inch (height) glass column was equipped at the base with a no clog filter on top of which was placed a layer of glass wool followed by a circular polyethylene frit. […] Aliquots of every fifth fraction were diluted and analyzed as described in Example 7. […]

[18] = tested on: P-388 leukemia; assay: transplanted mouse leukemia P-388 (ascitic); settings: single i.p. injection Day 1
Description: (§1) The compounds of the present invention were also tested against various transplantable rodent tumer systems.
(§2) Single injection Day 1 intraperitoneally.?
(§3) T/C percent MST=median survival time in days: Treated/Control × 100

[19] = tested on: L-1210 leukemia; assay: transplanted mouse leukemia L-1210 (ascitic); settings: single i.p. injection Day 1
Description: as §1, §2, §3

[20] = tested on: L-1210 leukemia; assay: L-1210 mouse leukemia, purified compounds, BDF1 female mice
Description: Inoculum: 10^6 ascitic cells, i.p. into BDF1 female mice
Treatment: i.p. in 0.5 ml. volume
Evaluation: MST = median survival time in days; %T/C = MST treated/MST
(prolongation of host survival)

[21] = 3.2 mg/kg/day i.p., Day 1, 1 injection
[22] = 3.2 mg/kg/day i.p., Day 1→5, 5 injections
[23] = 6.4 mg/kg/day i.p., Day 1, 1 injection
[24] = 6.4 mg/kg/day i.p., Day 1→5, 5 injections
[25] = 12.8 mg/kg/day i.p., Day 1, 1 injection
[26] = .2 mg/kg/day i.p., Day 1→5, 5 injections
[27] = .4 mg/kg/day i.p., Day 1, 1 injection
[28] = .4 mg/kg/day i.p., Day 1→5, 5 injections
[29] = .8 mg/kg/day i.p., Day 1, 1 injection
[30] = .8 mg/kg/day i.p., Day 1→5, 5 injections

## CC(=O)[C@]1(O)Cc2c(O)c3c(c(O)c2[C@@H](O[C@H]2C[C@H](N)[C@H](O)[C@H](C)O2)C1)C(=O)c1c(O)cccc1C3=O [carminomycin]
[1]
  activity against animal tumor systems: active against several animal tumor systems

## CC[C@@]1(O)C[C@H](O[C@H]2C[C@H](N(C)C)[C@H](O[C@H]3C[C@H](O)[C@H](O)[C@H](C)O3)[C@H](C)O2)c2c(cc3c(c2O)C(=O)c2c(O)ccc(O)c2C3=O)[C@H]1C(=O)OC [musettamycin]
[2]
  MIC: 0.06 µg/mL (≈ 0.0838 µM)
[3]
  MIC: 0.06 µg/mL (≈ 0.0838 µM)
[4]
  MIC: 0.5 µg/mL (≈ 0.699 µM)
[5]
  MIC: 1 µg/mL (≈ 1.4 µM)
[6]
  MIC: > 125 µg/mL
[7]
  MIC: 32 µg/mL (≈ 44.7 µM)
[8]
  MIC: > 125 µg/mL
[9]
  MIC: > 125 µg/mL
[10]
  MIC: 125 µg/mL (≈ 175 µM)
[11]
  MIC: 63 µg/mL (≈ 88 µM)
[12]
  MIC: 125 µg/mL (≈ 175 µM)
[13]
  MIC: 63 µg/mL (≈ 88 µM)
[14]
  MIC: > 125 µg/mL
[15]
  LD50: 9.8 to 21.1 mg/kg
[16]; organic solvents
  Solubility: Soluble in most organic solvents
[16]; water, aliphatic hydrocarbons and ether
  Solubility: insoluble in water, aliphatic hydrocarbons and ether
[17]
  activity of fraction: active
[18]; 3.2 mg/kg
  Avg. wt. Difference (T-C, g.): -3.0 g
  T/C Percent MST: 145%
[18]; 6.4 mg/kg
  Avg. wt. Difference (T-C, g.): -3.4 g
  T/C Percent MST: 160%
[18]; .2 mg/kg
  Avg. wt. Difference (T-C, g.): -2.1 g
  T/C Percent MST: 120%
[18]; .4 mg/kg
  Avg. wt. Difference (T-C, g.): -1.6 g
  T/C Percent MST: 135%
[18]; .8 mg/kg
  Avg. wt. Difference (T-C, g.): -2.0 g
  T/C Percent MST: 140%
[19]; 3.2 mg/kg
  Avg. wt. Difference (T-C, g.): -2.5 g
  T/C Percent MST: 120%
[19]; 6.4 mg/kg
  Avg. wt. Difference (T-C, g.): -2.5 g
  T/C Percent MST: 140%
[19]; .8 mg/kg
  Avg. wt. Difference (T-C, g.): -1.1 g
  T/C Percent MST: 107%
[20]; [21]
  Average Weight Change in g.: +0.3 g.
  MST %T/C: 129%
  MST Days: 9.0 days
[20]; [22]
  Average Weight Change: -1.3 g
  MST %T/C: 157%
  MST Days: 11.0 days
[20]; [23]
  Average Weight Change in g.: +0.5 g.
  MST %T/C: 143%
  MST Days: 10.0 days
[20]; [24]
  Average Weight Change: -1.5 g
  MST %T/C: 86%
  MST Days: 6.0 days
[20]; [25]
  Average Weight Change: -0.6 g
  MST %T/C: 150%
  MST Days: 10.5 days
[20]; [26]
  Average Weight Change in g.: +1.8 g.
  MST %T/C: 129%
  MST Days: 9.0 days
[20]; [27]
  Average Weight Change in g.: +1.3 g.
  MST %T/C: 114%
  MST Days: 8.0 days
[20]; [28]
  Average Weight Change in g.: +0.6 g.
  MST %T/C: 129%
  MST Days: 9.0 days
[20]; [29]
  Average Weight Change in g.: +1.2 g.
  MST %T/C: 121%
  MST Days: 8.5 days
[20]; [30]
  Average Weight Change in g.: +0.4 g.
  MST %T/C: 136%
  MST Days: 9.5 days
